According to patent US11427544B2, “Histone deacetylase 6 inhibitors and use thereof” (TAIPEI MEDICAL UNIVERSITY, priority 2016, dated 2022):

Tests used:
[1] = target: T1, HDAC1 (Homo sapiens, UniProt Q13547); test: Fluorogenic HDAC assay, HDAC1; assay type: biochemical; conditions: recombinant HDAC1; read-out: Enzyme IC50 HDAC1
T1 construct: purchased BPS Bioscience Corp
Excerpt: Of note, there are eighteen human HDACs. Eleven of them, designated as HDAC1-11, are zinc-dependent. Seven of them, designated as Sirt1-7, are NAD+-dependent.
Fluorogenic HDAC assay kits were used to assess the ability of HDAC inhibitors to inhibit deacetylation of lysine residues on a substrate by recombinant proteins HDAC1, 3, 4, 5, 6, 7, 8, 9 and Sirt1 according to the manufacturer's instructions (BPS Bioscience Corp., San Diego, Calif., USA).

[2] = test system: PC-3 prostate cancer cell line; test: Antiproliferative activity, PC-3; assay type: cell-based, human; conditions: Homo sapiens
Experimental: A study was conducted to evaluate the inhibitory activity of compounds of Formula (I) in inhibiting HDAC6, antiproliferative activity of test compounds in suppressing cancer cell growth, and selectivity of inhibiting HDAC6 over other HDAC isoforms.
(§1) The study was performed according to the protocol reported in Hsieh et al., Cell Death and Disease, 2014, April; 5:e1166.
Shown in Table 2 below are antiproliferative activities (measured by their half maximal concentration for inhibiting cell growth, i.e., GI50) of the test compounds against various cancer cell lines.

[3] = target: T2, HDAC6-dynein binding (Homo sapiens, UniProt Q9UBN7); test: HDAC6-dynein binding (immunoprecipitation, immunoblotting); assay type: cell-based; conditions: dose-dependent
T2 construct: endogenous in cells
T2 sequence (Q9UBN7 whole entry): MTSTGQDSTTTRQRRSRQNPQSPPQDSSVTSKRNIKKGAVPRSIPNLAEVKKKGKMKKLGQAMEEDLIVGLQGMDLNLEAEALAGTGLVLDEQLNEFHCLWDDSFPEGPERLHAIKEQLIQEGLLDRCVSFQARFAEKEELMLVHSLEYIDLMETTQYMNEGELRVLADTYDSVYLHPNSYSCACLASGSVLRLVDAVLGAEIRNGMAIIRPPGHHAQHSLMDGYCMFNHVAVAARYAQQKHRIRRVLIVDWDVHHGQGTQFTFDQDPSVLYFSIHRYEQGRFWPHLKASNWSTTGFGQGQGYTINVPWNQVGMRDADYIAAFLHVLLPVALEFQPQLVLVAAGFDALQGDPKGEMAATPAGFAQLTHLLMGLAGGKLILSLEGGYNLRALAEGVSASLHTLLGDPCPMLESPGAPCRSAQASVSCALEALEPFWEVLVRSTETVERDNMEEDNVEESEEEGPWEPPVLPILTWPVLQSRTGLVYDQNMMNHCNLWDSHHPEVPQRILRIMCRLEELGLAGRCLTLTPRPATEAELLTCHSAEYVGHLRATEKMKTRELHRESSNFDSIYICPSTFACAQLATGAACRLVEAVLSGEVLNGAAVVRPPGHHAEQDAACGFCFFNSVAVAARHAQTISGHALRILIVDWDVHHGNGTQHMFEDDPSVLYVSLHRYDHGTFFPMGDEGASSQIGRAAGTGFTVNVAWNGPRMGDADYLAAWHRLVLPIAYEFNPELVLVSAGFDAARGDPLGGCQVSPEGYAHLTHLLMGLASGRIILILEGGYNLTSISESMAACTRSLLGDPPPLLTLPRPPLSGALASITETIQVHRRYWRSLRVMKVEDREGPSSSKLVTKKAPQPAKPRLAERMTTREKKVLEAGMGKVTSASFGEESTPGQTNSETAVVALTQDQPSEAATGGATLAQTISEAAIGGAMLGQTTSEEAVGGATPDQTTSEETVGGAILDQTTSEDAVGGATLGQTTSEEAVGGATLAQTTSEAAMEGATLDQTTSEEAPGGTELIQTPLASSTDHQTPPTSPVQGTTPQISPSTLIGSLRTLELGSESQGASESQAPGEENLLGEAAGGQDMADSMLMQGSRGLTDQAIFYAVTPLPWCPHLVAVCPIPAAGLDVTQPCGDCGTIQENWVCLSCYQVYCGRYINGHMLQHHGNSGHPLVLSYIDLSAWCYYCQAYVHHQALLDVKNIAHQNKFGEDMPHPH
Experimental: (§2) A study was conducted to evaluate the activity of a compound of Formula (I) in inhibiting HDAC6-dynein binding and inducing accumulation of polyubiquited proteins.
(§3) Cell lysates were immunoprecipitated overnight at 4° C. with 1 μg of dynein antibody and A/G-agarose beads. The precipitated beads were washed three times with 1 mL of an ice-cold cell lysis buffer solution. The resulting immune complex was resolved by 10% SDS-PAGE gel electrophoresis, followed by immunoblotting assay using anti-HDAC6 Ab.
(§4) The study was performed according to the protocol reported in Chen et al., Journal of Immunology, 2008, 181(12):8441-8449.

[4] = test system: polyubiquited proteins; test: Accumulation of polyubiquited proteins; assay type: cell-based; conditions: dose-dependent
Experimental: as §2, §3, §4

[5] = test system: RPMI8226, U266, and NCI-H929 multiple myeloma cell lines; test: Apoptosis in multiple myeloma cells, combined with bortezomib (propidium iodide, FACScan); assay type: cell-based, human; conditions: 24 hours
Experimental: A study was conducted to evaluate the effect of a compound of Formula (I) combined with bortezomib in inducing apoptosis in multiple myeloma cells.
To detect cell cycle progression, cells were incubated with or without the indicated agent for 24 hours, washed twice with ice-cold PBS, collected by centrifugation, and fixed in 70% (v/v) ethanol for 2 hours at −20° C. They were subsequently incubated for 30 minutes at room temperature with 0.2 mL of deoxyribonucleic acid (DNA) extraction buffer (0.2 M Na2HPO4 and 0.1 M citric acid buffer, pH 7.8), re-suspended in 1 mL of propidium iodide staining buffer (0.1% Triton X-100, 100 μg/mL of RNase A, and 80 μg/mL of propidium iodide in PBS), incubated at 37° C. for 30 minutes in darkness, sorted by FACScan, and analyzed using CellQuest software (BD Biosciences).
as §1

[6] = test system: Aβ42 production in pCAX APP 695 plasmid-transfected Neuro 2a and SH—SYSY cells; test: Aβ42 production in cell culture supernatants; assay type: cell-based; conditions: pCAX APP 695 transfected Neuro 2a and SH—SYSY cells; 0.1-10 μM, 24 hours
Experimental: A study was conducted to evaluate the effect of compounds of Formula (I) in amyloid precursor protein (APP) levels and Aβ42 production.
Moreover, neuro 2a or SH—SYSY cells (1×10^5) were transfected with pCAX APP 695 plasmid for 24 hours, followed by incubation with Compound 12 or Compound 28 (0.1-10 μM) for another 24 hours. Cell culture supernatants were assayed for Aβ42 production.

[7] = test system: RPMI-8226 Multiple myeloma; test: Tumor growth inhibition, RPMI-8226 xenograft; assay type: in vivo, athymic nude mice; conditions: 50 mg/kg, qd
Experimental: (§5) An in vivo study was conducted to evaluate the efficacy of compounds of Formula (I) in suppressing tumor growth in multiple human cancer types.
(§6) Eight-week-old athymic nude mice were group-housed under conditions of constant photoperiod (12 h light/12 h dark at 21-23° C. and 60-85% humidity) with ad libitum access to sterilized food and water. All animal experiments followed ethical standards, and protocols were reviewed and approved by the Animal Use and Management Committee of National Taiwan University. Each mouse was inoculated subcutaneously with 1×10^6˜1×10^7 human cancer cells in a total volume of 0.1 mL serum-free medium containing 50% Matrigel (BD Biosciences). As tumors became established (˜100 mm^3), mice were randomized to various groups to be treated with pre-determined materials (n=6-8/group): (i) control group: 0.5% DMSO/0.5% Cremophor/90% D5W and (ii) treatment groups: Compounds 12 and 28 at pre-determined doses daily. Mice received treatment by intraperitoneal injection for the duration of the study. Tumors were measured weekly using calipers. Tumor size, in mm^3, was calculated according to the formula: Tumor volume=(w^2×l)/2, where w and 1 respectively represent the width and length (both in mm) of the tumor.

[8] = test system: MDA-MB-231 Breast; test: Tumor growth inhibition, MDA-MB-231 xenograft; assay type: in vivo, athymic nude mice; conditions: qd, intraperitoneal
Experimental: as §5, §6

[9] = test system: HCT116 Colorectal; test: Tumor growth inhibition, HCT116 xenograft; assay type: in vivo, athymic nude mice; conditions: qd, intraperitoneal
Experimental: as §5, §6

[10] = test system: scopolamine-induced memory deficit; test: Water maze test, scopolamine-treated rats; assay type: in vivo; conditions: gavage twice daily for seven days; scopolamine 1.5 mg/kg i.p.
Experimental: An in vivo study was conducted to evaluate the efficacy of compounds of Formula (I) in improving memory deficits associated with Alzheimer's disease.
(§7) Compound 12, Compound 28, suberanilohydroxamic acid (50 mg/kg) or vehicle was given to rats by gavage twice daily for seven days prior to behavioral experiments. On the day conducting a behavior assessment, rats in all groups except the control group were administered scopolamine (1.5 mg/kg) by intraperitoneal injection for 30 minutes before the assessment, then a water maze test or an elevated plus maze test was performed.

[11] = test system: scopolamine-induced memory deficit; test: Elevated plus maze test, scopolamine-treated rats; assay type: in vivo; conditions: gavage twice daily for seven days; scopolamine 1.5 mg/kg i.p.
Experimental: as §7, with “An in vivo study was conducted to evaluate the efficacy of compounds of Formula (I) in improving memory deficits associated with Alzheimer's disease. Compound 12,” for “Compound 12,”, “was performed. […] The significant reduction in transfer latency time indicated improvement in memory.” for “was performed.”

T1 sequence (Q13547 whole entry): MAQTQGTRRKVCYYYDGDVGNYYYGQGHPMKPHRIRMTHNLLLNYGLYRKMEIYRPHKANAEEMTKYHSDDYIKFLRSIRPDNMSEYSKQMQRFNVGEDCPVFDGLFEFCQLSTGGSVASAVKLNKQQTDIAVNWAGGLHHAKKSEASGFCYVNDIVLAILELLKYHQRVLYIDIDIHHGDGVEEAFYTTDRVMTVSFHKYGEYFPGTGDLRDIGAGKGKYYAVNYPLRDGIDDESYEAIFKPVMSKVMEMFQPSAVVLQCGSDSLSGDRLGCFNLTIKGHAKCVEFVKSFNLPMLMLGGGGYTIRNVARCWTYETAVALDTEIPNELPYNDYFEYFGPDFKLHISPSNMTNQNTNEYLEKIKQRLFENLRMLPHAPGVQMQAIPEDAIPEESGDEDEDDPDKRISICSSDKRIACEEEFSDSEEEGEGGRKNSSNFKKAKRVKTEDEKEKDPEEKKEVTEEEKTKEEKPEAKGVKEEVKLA

## O=C(NO)c1ccc(CNc2cccc3cccnc23)cc1 [Compound 28, N-hydroxy-4-((quinolin-8-ylamino)methyl)benzamide]
[1]
  IC50: 6.7 µM
[2]
  GI50: 3.4 ± 0.13 µM
[3]
  HDAC6-dynein binding: inhibited HDAC6-dynein binding
[4]
  accumulation of polyubiquited proteins: induced accumulation of polyubiquited proteins
[5]
  induction of apoptosis: synergistically induced apoptosis
[6]
  Aβ42 production: decreased Aβ42 production
[7]; CR: complete regression
  Best Response: 2 × CR^a
[7]; intraperitoneal
  % TGI: 80.0%
[8]; 25 mg/kg
  % TGI: 38.6%
[8]; 50 mg/kg
  % TGI: 56.4%
[9]; 50 mg/kg
  % TGI: 9.1%
[9]; 100 mg/kg
  % TGI: 44.4%
[10]
  time spent in the correct quadrant (water maze): markedly reverse this effect
[11]
  transfer latency time (elevated plus maze): significantly rescued scopolamine-mediated increase of transfer latency time
